Laboratory results published in paper PMC8304783, “Antiadhesive Properties of Imidazolium Ionic Liquids Based on (−)-Menthol Against Candida spp” (International Journal of Molecular Sciences, 2021).
Like-named read-outs stand apart in the source and are kept apart here.

What was measured:
Format in all cases: cell-based
C. albicans B4 = assay: MIC90 and MFC towards clinical isolates; conditions: Candida albicans
Method: (§1) Experiments were performed according to the Clinical and Laboratory Standards Institute (2008), 3rd ed. M27-A3 [51], with modifications described previously. Briefly, MICs were determined by serially diluting ILs in YPD medium in sterile 96-well plates (Sarstedt) and inoculating with fungal suspensions (final OD600 per well = 0.01). After incubation (48 h; 28 °C), the OD600 was measured (ASYS UVM 340 Biogenet). […] Each well was then replated on YPD agar and incubated for 5 days at 28 °C.
(§2) The effect of imidazolium ILs based on of (1R,2S,5R)‐(−)‐menthol was evaluated on clinical, fluconazole(FLC)‐resistant and FLC‐sensitive C. albicans isolates. C. albicans Gu4 and Gu5 strains were isolated from a patient before and after fluconazole administration, respectively.
(§3) Azole‐resistance of Gu5 origins in overexpression of CDR1 and CD R2. C. albicans B3 and B4 strains […]
(§4) Azole‐resistance of B4 results from overexpression of MDR1. The strains were generous gifts from Prof. S. Milewski (Gdańsk, Poland) and Prof. J. Morschhäuser (Wurzburg, Germany). They are originally referenced in: Franz, R., Ruhnke, M. & Morschhäuser, J. Molecular aspects of fluconazole resistance development in Candida albicans. Mycoses 42, 453–458, (1999).
(§5) Table S1 summarizes the minimal inhibitory and fungicidal concentration (MIC90 and MFC, respectively) values of ILs tested against the C. albicans isolates (for ILs structures see section 5.2. in the mai n text). No difference in case of MIC90 values between the strains was observed. However, MFC values were two‐fold lower for the compounds 1b and 2a in case of B3 and B4 isolates. The MFC value of the compound 1a wa s two‐fold higher on ly in ca se of Gu5 strain.
(§6) Table S1. Minimal inhibitory concentrations (MIC90; μM) and minimal fungicidal concentrations (MFC; μM) of ionic liquids (ILs ) or fluconazole (FLC) towards clinical C. albicans isolates.

C. albicans Gu5 = assay: MIC90 and MFC towards clinical isolates; conditions: Candida albicans
Method: as §1, §2, §3, §4, §5, §6

C. albicans B3 = assay: MIC90 and MFC towards clinical isolates; conditions: Candida albicans, clinical isolate B3 (FLC-sensitive); for MFC: read-out: Minimal fungicidal concentration (MFC); for MIC90: read-out: Minimal inhibitory concentration (MIC90)
Method: as §1, §2, §3, §4, §5, §6

C. albicans Gu4 = assay: MIC90 and MFC towards clinical isolates; conditions: Candida albicans, clinical isolate Gu4 (FLC-sensitive); for MFC: read-out: Minimal fungicidal concentration (MFC); for MIC90: read-out: Minimal inhibitory concentration (MIC90)
Method: as §1, §2, §3, §4, §5, §6

[1] = system: C. albicans B4 and Gu5 isolates; assay: Biofilm of clinical isolates on acrylic dental crowns (crystal violet); conditions: B4 and Gu5 (FLC-resistant); 72 h biofilm, then ILs 25 μM for 2 h
Method: (§7) To assess the influence of ILs on biofilm formation by C. albicans strain SC5314 on dentures, the following materials were used: acrylic dental crowns, porcelain-fused-to-metal (PFMs) dental crowns and dental alloy substructures. All dentures were kind gifts from Prof. M. Łukaszewicz (Wrocław, Poland). Prior to the experiments, the dentures were sterilized by 1 h incubation in 70% pure ethanol (EtOH) solution, washed with sterile water to remove EtOH residues and dried under aseptic conditions. The experiments were performed by aseptically placing dentures in YPD, supplemented with FBS, and inoculating them with YPD-grown C. albicans suspension (0.01% Vol/Vol). After 72 h of incubation at 37 °C, the dentures were treated for 2 h with the addition of ILs (conc. = 25 µM), washed with PBS and fixed with 0.1% CV solution for 10 min, then washed with PBS to remove the stain residue. The dentures were then dried and photographed. Microscopic preparations were made of biofilm samples which were imaged using the Zeiss Axio Imager A2 microscope equipped with Zeiss Axiocam 503 mono microscope camera.
Figure S1. Detachment of adherent C. albicans clinical isolates after 2 h incubation on polystyrene surfaces by ionic liquids (ILs) (means ± SD; n = 3). Results are presented as percentage of adherent cells relative to untreated controls (100% adhesion). Statistical analysis of detachment at each concentration was performed towards corresponding control experiments (isolates untreated by ILs=100% adhesion) (*, p < 0.05; **, p < 0.01 […]
We selected C. albicans B4 and Gu5 isolates for evaluating the ability of ILs to eradicate biofilm formation on acrylic dental crowns (Figure S2). Both the strains were chosen due to their FLC‐resistance status. An IL concentration of 25 μM was selected for this investigation. In each condition, a C. albicans biofilm was formed after 72 h incubation, and the collected biomass was microscopically evaluated for the presence of hyphae, pseudohyphae and blastoconidia characteristic of C. albicans (Figure S2). […]

[2] = system: C. albicans strain SC5314; assay: Biofilm formation on dentures (crystal violet); conditions: for C. albicans biofilm on PFM dental crowns (CV staining) / C. albicans biofilm on acrylic dental crowns (CV staining) / C. albicans biofilm on dental alloy substructures (CV staining): 72 h biofilm, then ILs 25 µM for 2 h; for Visual eradication of C. albicans biofilm formed on dentures: dentures of different materials taken together, ILs 25 µM, 2 h
Source text: We evaluated the ability of ILs to eradicate C. albicans biofilm formation on a number of dentures, namely acrylic dental crowns, PFM dental crowns and dental alloy substructures (Figure 2). This approach has the following disadvantage: impossibility of reliable biofilm quantification. However, during in vivo Candida spp. infections and biofilm formation, the fungi attach themselves into porous structure of dentures, and thus we selected them for the studies over commonly used discs. Here, an IL concentration of 25 µM was selected for this investigation. In each condition, a C. albicans biofilm was formed after 72 h incubation, and the collected biomass was microscopically evaluated for the presence of hyphae, pseudohyphae and blastoconidia characteristic of C. albicans (Figure 2). Next, the materials were treated with ILs for 2 h and stained with crystal violet (CV). […] Microscopic observations of the stained biomass from dentures exposed to both 1a and 1b (Figure 2, white arrows) confirmed the presence of C. albicans hyphae and blastoconidia (data not shown).
as §7

[3] = B4, read-out: Minimal fungicidal concentration (MFC)
[4] = B4, read-out: Minimal inhibitory concentration (MIC90)
[5] = GU5, read-out: Minimal fungicidal concentration (MFC)
[6] = GU5, read-out: Minimal inhibitory concentration (MIC90)

SMILES | MFC (C. albicans B4; clinical isolate B4 (FLC-resistant, MDR1 overexpression), read-out: Minimal fungicidal concentration (MFC)) [µM] | MIC90 (C. albicans B4; clinical isolate B4 (FLC-resistant, MDR1 overexpression), read-out: Minimal inhibitory concentration (MIC90)) [µM] | MFC (C. albicans Gu5; clinical isolate Gu5 (FLC-resistant, CDR1/CDR2 overexpression), read-out: Minimal fungicidal concentration (MFC)) [µM] | MIC90 (C. albicans Gu5; clinical isolate Gu5 (FLC-resistant, CDR1/CDR2 overexpression), read-out: Minimal inhibitory concentration (MIC90)) [µM] | MFC (C. albicans B3) [µM] | MIC90 (C. albicans B3) [µM] | MFC (C. albicans Gu4) [µM] | MIC90 (C. albicans Gu4) [µM] | Biofilm of clinical isolates on acrylic dental crowns (CV staining) [1] | C. albicans biofilm on PFM dental crowns (CV staining) [2] | C. albicans biofilm on acrylic dental crowns (CV staining) [2] | C. albicans biofilm on dental alloy substructures (CV staining) [2] | Visual eradication of C. albicans biofilm formed on dentures [2] | MFC (C. albicans B4; [3]) [µM] | MIC90 (C. albicans B4; [4]) [µM] | MFC (C. albicans Gu5; [5]) [µM] | MIC90 (C. albicans Gu5; [6]) [µM]
CCCCCCCCCn1cc[n+](CO[C@@H]2C[C@H](C)CC[C@H]2C(C)C)c1 [1a, 1-[(1R,2S,5R)-(−)-menthoxymethyl]-3-nonylimidazolium chloride] | 25 | 12.5 | 50 | 12.5 | 25 | 12.5 | 25 | 12.5 | residual CV staining | residual CV staining was observed | residual CV staining was observed | residual CV staining was observed | partially |  |  |  | 
CCCCCCCCCCn1cc[n+](CO[C@@H]2C[C@H](C)CC[C@H]2C(C)C)c1 [1b, 3-decyl-1-[(1R,2S,5R)-(−)-menthoxymethyl]imidazolium chloride] |  |  |  |  | 25 | 25 | 50 | 25 | residual CV staining | residual CV staining was observed | residual CV staining was observed | residual CV staining was observed | partially | 25 | 25 | 50 | 25
CCCCCCCCCOCn1cc[n+](CO[C@@H]2C[C@H](C)CC[C@H]2C(C)C)c1 [2a, 1-(1R,2S,5R)-(−)-menthoxymethyl-3-nonyloxymethylimidazolium chloride] |  |  |  |  | 12.5 | 12.5 | 25 | 12.5 | prote ct ed | did not fully protect | protected | protected | totally | 12.5 | 12.5 | 25 | 12.5
